pIC50, pKi: −log10 of the molar value.
What was measured:
[1] = target: T1, Human P2Y12 receptor (Homo sapiens, UniProt Q9H244); test: Human P2Y12 receptor cell membrane binding assay with [3H] 2-Mes-ADP; details: 1 nM [3H] 2-Mes-ADP, membranes of HEK cells expressing P2Y12 receptor; read-out: Binding activity (IC50)
T1 construct: expressed in transfected cells; host or cells: HEK cells
Outline: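 Competition binding used 1 nM [3H]2-MeS-ADP on P2Y12-expressing HEK cell membranes for 1 h at room temperature, followed by filtration and scintillation counting.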

[2] = test system: Human platelet aggregation caused by ADP; test: Inhibition of ADP-induced platelet aggregation (Mimic-human PRP); assay type: cell-based; details: 20 μM ADP, human platelet concentrate diluted with PPP, absorption at 595 nm
Outline: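 Ki came from non-linear sigmoidal fits of inhibition, measured as the 3-min rise in absorbance at 595 nm after 20 μM ADP, relative to 0/20 μM ADP controls. Platelets (3–4×10^8/mL in PPP-diluted human PRP) were exposed to 0.01–30 μM compound for 20 min at room temperature beforehand.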

T1 sequence (Q9H244 whole entry): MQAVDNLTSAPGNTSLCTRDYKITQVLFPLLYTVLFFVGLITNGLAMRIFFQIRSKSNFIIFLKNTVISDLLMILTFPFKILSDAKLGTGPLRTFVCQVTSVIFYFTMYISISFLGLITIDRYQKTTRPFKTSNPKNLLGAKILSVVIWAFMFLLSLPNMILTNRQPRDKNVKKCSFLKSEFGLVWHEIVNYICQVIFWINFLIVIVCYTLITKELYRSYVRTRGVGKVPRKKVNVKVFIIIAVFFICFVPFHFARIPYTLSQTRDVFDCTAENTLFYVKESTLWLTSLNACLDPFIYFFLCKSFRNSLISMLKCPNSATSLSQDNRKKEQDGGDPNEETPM

Structure (SMILES)	pIC50 [1]	pKi [2]
CCCc1cc2c(N3CCn4c(nnc4C(F)(F)F)C3)nc(Nc3nc(C(=O)O)cs3)nc2s1 [Example 1-132, 2-[6-Propyl-4-(3-trifluoromethyl-5,6-dihydro-8H-[1,2,4]triazolo[4,3-a]pyrazin-7-yl)thieno[2,3-d]pyrimidin-2-ylamino]thiazole-4-carboxylic acid]	7.33	7.00
CCCc1cc2c(N3CCn4c(nnc4C(F)(F)F)C3)nc(N3CCNc4ncccc43)nc2s1 [Example 1-134, 1-[6-Propyl-4-(3-trifluoromethyl-5,6-dihydro-8H-[1,2,4]triazolo[4,3-a]pyrazin-7-yl)thieno[2,3-d]pyrimidin-2-yl]-1,2,3,4-tetrahydro-pyrido[2,3-b]pyrazine]	6.00	6.06
CCc1cc2c(N3CCn4c(nnc4C(F)(F)F)C3)nc(N3CCNC(=O)C3)nc2s1 [Example 2-2, 4-[6-Ethyl-4-(3-trifluoromethyl-5,6-dihydro-8H-[1,2,4]triazolo[4,3-a]pyrazin-7-yl)-thieno[2,3-d]pyrimidin-2-yl]-piperazin-2-one]	7.01	6.08
CCc1cc2c(N3CCn4c(nnc4C(F)(F)F)C3)nc(NCCO)nc2s1 [Example 2-5, 2-[6-Ethyl-4-(3-trifluoromethyl-5,6-dihydro-8H-[1,2,4]triazolo[4,3-a]pyrazin-7-yl)-thieno[2,3-d]pyrimidin-2-ylamino]-ethanol]	6.15	6.07
CCc1cc2c(N3CCn4c(nnc4C(F)(F)F)C3)nc(N(CCO)CCO)nc2s1 [Example 2-6, 2-[[6-Ethyl-4-(3-trifluoromethyl-5,6-dihydro-8H-[1,2,4]triazolo[4,3-a]pyrazin-7-yl)-thieno[2,3-d]pyrimidin-2-yl]-(2-hydroxy-ethyl)-amino]-ethanol]	6.08	6.15
CCc1cc2c(N3CCn4c(nnc4C(F)(F)F)C3)nc(N3CCNCC3)nc2s1 [Example 2-7, 7-(6-Ethyl-2-piperazin-1-yl-thieno[2,3-d]pyrimidin-4-yl)-3-trifluoromethyl-5,6,7,8-tetrahydro-[1,2,4]triazolo[4,3-a]pyrazine]	6.68	6.17
CCc1cc2c(N3CCn4c(nnc4C(F)(F)F)C3)nc(N3CCN(C)CC3)nc2s1 [Example 2-10, 7-[6-Ethyl-2-(4-methyl-piperazin-1-yl)-thieno[2,3-d]pyrimidin-4-yl]-3-trifluoromethyl-5,6,7,8-tetrahydro-[1,2,4]triazolo[4,3-a]pyrazine]	6.66	6.11
CC(C)c1cc2c(N3CCn4c(nnc4C(F)(F)F)C3)nc(N3CCNC(=O)C3)nc2s1 [Example 2-12, 4-[6-isopropyl-4-(3-trifluoromethyl-5,6-dihydro-8H-[1,2,4]triazolo[4,3-a]pyrazin-7-yl)-thieno[2,3-d]pyrimidin-2-yl]-piperazin-2-one]	6.34	5.54
CCCCc1cc2c(N3CCn4c(nnc4C(F)(F)F)C3)nc(N3CCNC(=O)C3)nc2s1 [Example 2-14, 4-[6-Butyl-4-(3-trifluoromethyl-5,6-dihydro-8H-[1,2,4]triazolo[4,3-a]pyrazin-7-yl)-thieno[2,3-d]pyrimidin-2-yl]-piperazin-2-one]	7.00	6.48
CCCCc1cc2c(N3CCn4c(nnc4C(F)(F)F)C3)nc(NCCO)nc2s1 [Example 2-15, 2-[6-Butyl-4-(3-trifluoromethyl-5,6-dihydro-8H-[1,2,4]triazolo[4,3-a]pyrazin-7-yl)-thieno[2,3-d]pyrimidin-2-ylamino]-ethanol]	6.62	6.65
CCCCc1cc2c(N3CCn4c(nnc4C(F)(F)F)C3)nc(N3CCN(C)CC3)nc2s1 [Example 2-16, 7-[6-Butyl-2-(4-methyl-piperazin-1-yl)-thieno[2,3-d]pyrimidin-4-yl]-3-trifluoromethyl-5,6,7,8-tetrahydro-[1,2,4]triazolo[4,3-a]pyrazine]	6.73	6.09
CC(C)Cc1cc2c(N3CCn4c(nnc4C(F)(F)F)C3)nc(N3CCNC(=O)C3)nc2s1 [Example 2-17, 4-[6-Isobutyl-4-(3-trifluoromethyl-5,6-dihydro-8H-[1,2,4]triazolo[4,3-a]pyrazin-7-yl)-thieno[2,3-d]pyrimidin-2-yl]-piperazin-2-one]	6.44	6.36
CC(C)Cc1cc2c(N3CCn4c(nnc4C(F)(F)F)C3)nc(N3CC[C@@H](O)C3)nc2s1 [Example 2-18, (R)-1-[6-Isobutyl-4-(3-trifluoromethyl-5,6-dihydro-8H-[1,2,4]triazolo[4,3-a]pyrazin-7-yl)-thieno[2,3-d]pyrimidin-2-yl]-pyrrolidin-3-ol]	6.48	6.51
O=C1CN(c2nc(N3CCn4c(nnc4C(F)(F)F)C3)c3cc(CCC(F)(F)F)sc3n2)CCN1 [Example 2-19, 4-[4-(3-Trifluoromethyl-5,6-dihydro-8H-[1,2,4]triazolo[4,3-a]pyrazin-7-yl)-6-(3,3,3-trifluoro-propyl)-thieno[2,3-d]pyrimidin-2-yl]-piperazin-2-one]	6.44	6.26
O[C@@H]1CCN(c2nc(N3CCn4c(nnc4C(F)(F)F)C3)c3cc(CCC(F)(F)F)sc3n2)C1 [Example 2-20, (R)-1-[4-(3-Trifluoromethyl-5,6-dihydro-8H-[1,2,4]triazolo[4,3-a]pyrazin-7-yl)-6-(3,3,3-trifluoro-propyl)-thieno[2,3-d]pyrimidin-2-yl]-pyrrolidin-3-ol]	6.59	7.40
CCCc1cc2c(N3CCn4c(nnc4C(F)(F)F)C3)nc(OCC(O)CO)nc2s1 (stereo not drawn) [Example 3-1, 3-[6-Propyl-4-(3-trifluoromethyl-5,6-dihydro-8H-[1,2,4]triazolo[4,3-a]pyrazin-7-yl)-thieno[2,3-d]pyrimidin-2-yloxy]-propane-1,2-diol]	6.85	7.51
CCCc1cc2c(N3CCn4c(nnc4C(F)(F)F)C3)nc(OCC(CO)CO)nc2s1 [Example 3-2, 2-[6-Propyl-4-(3-trifluoromethyl-5,6-dihydro-8H-[1,2,4]triazolo[4,3-a]pyrazin-7-yl)-thieno[2,3-d]pyrimidin-2-yloxymethyl]-propane-1,3-diol]	6.70	7.77
CCCc1cc2c(N3CCn4c(nnc4C(F)(F)F)C3)nc(OCCO)nc2s1 [Example 3-3, 2-[6-Propyl-4-(3-trifluoromethyl-5,6-dihydro-8H-[1,2,4]triazolo[4,3-a]pyrazin-7-yl)-thieno[2,3-d]pyrimidin-2-yloxy]-ethanol]	6.95	7.52
CCCc1cc2c(N3CCn4c(nnc4C(F)(F)F)C3)nc(OCCOC)nc2s1 [Example 3-4, 7-[2-(2-Methoxy-ethoxy)-6-propyl-thieno[2,3-d]pyrimidin-4-yl]-3-trifluoromethyl-5,6,7,8-tetrahydro-[1,2,4]triazolo[4,3-a]pyrazine]	6.77	6.64
CCCc1cc2c(N3CCn4c(nnc4C(F)(F)F)C3)nc(OC3CCOC3)nc2s1 (stereo not drawn) [Example 3-5, 7-[6-Propyl-2-(tetrahydro-furan-3-yloxy)-thieno[2,3-d]pyrimidin-4-yl]-3-trifluoromethyl-5,6,7,8-tetrahydro-[1,2,4]triazolo[4,3-a]pyrazine]	7.04	7.59
CCCc1cc2c(N3CCn4c(nnc4C(F)(F)F)C3)nc(OCC3CCCO3)nc2s1 (stereo not drawn) [Example 3-6, 7-[6-Propyl-2-(tetrahydro-furan-2-ylmethoxy)-thieno[2,3-d]pyrimidin-4-yl]-3-trifluoromethyl-5,6,7,8-tetrahydro-[1,2,4]triazolo[4,3-a]pyrazine]	6.16	6.85
CCCc1cc2c(N3CCn4c(nnc4C(F)(F)F)C3)nc(OC3CCN(C)C3)nc2s1 (stereo not drawn) [Example 3-7, 7-[2-(1-Methyl-pyrrolidin-3-yloxy)-6-propyl-thieno[2,3-d]pyrimidin-4-yl]-3-trifluoromethyl-5,6,7,8-tetrahydro-[1,2,4]triazolo[4,3-a]pyrazine]	6.27	6.52
CCCc1cc2c(N3CCn4c(nnc4C(F)(F)F)C3)nc(OCC(=O)OC)nc2s1 [Example 3-8, [6-Propyl-4-(3-trifluoromethyl-5,6-dihydro-8H-[1,2,4]triazolo[4,3-a]pyrazin-7-yl)-thieno[2,3-d]pyrimidin-2-yloxy]-acetic acid methyl ester]	6.48	6.21
CCCc1cc2c(N3CCn4c(nnc4C(F)(F)F)C3)nc(OCC(=O)O)nc2s1 [Example 3-9, [6-Propyl-4-(3-trifluoromethyl-5,6-dihydro-8H-[1,2,4]triazolo[4,3-a]pyrazin-7-yl)-thieno[2,3-d]pyrimidin-2-yloxy]-acetic acid]	6.08	5.43
CCCc1cc2c(N3CCn4c(nnc4C(F)(F)F)C3)nc(OCCCO)nc2s1 [Example 3-10, 3-[6-Propyl-4-(3-trifluoromethyl-5,6-dihydro-8H-[1,2,4]triazolo[4,3-a]pyrazin-7-yl)-thieno[2,3-d]pyrimidin-2-yloxy]-propan-1-ol]	6.85	7.19
CCCc1cc2c(N3CCn4c(nnc4C(F)(F)F)C3)nc(OCCC(=O)O)nc2s1 [Example 3-11, 3-[6-Propyl-4-(3-trifluoromethyl-5,6-dihydro-8H-[1,2,4]triazolo[4,3-a]pyrazin-7-yl)-thieno[2,3-d]pyrimidin-2-yloxy]-propionic acid]	7.14	7.15
CCCc1cc2c(N3CCn4c(nnc4C(F)(F)F)C3)nc(OCCC(=O)OC(C)C)nc2s1 [Example 3-12, 3-[6-Propyl-4-(3-trifluoromethyl-5,6-dihydro-8H-[1,2,4]triazolo[4,3-a]pyrazin-7-yl)-thieno[2,3-d]pyrimidin-2-yloxy]-propionic acid isopropyl ester]	6.80	7.30

Source: patent US20110166121A1 (LG LIFE SCIENCES LTD., priority 2008, published 2011)
